According to the Kinase Knowledgebase extract (Sharma et al. 2016):
pIC50, pKi: −log10 of the molar value. ≈ marks a conversion by molar mass, not a printed value. Numbered stars: 1 amine (or outer) side, 2 acyl side, 3 side chain; on linkers, the order of the positions; unused ones are H or OH. Square brackets hold non-standard residues; d marks the D form. Residues, ends and D or L forms follow the SMILES beside them. Peptide text beside a SMILES is read from it. ξ: configuration not given here. *: point of attachment. X1 = CC(=O)C(=O)CCc1ccc(CC(N[*:1])C(=O)[*:2])cc1; Ile(3ξ) = CCC(C)[C@H](N)C(=O)O

Legend:
CDK2 [1] = biological target: CDK2 (UniProt P24941); test: Enzyme Assay
CDK2 (human) [2] = biological target: CDK2 (human) (UniProt P24941); test: Enzyme Assay
CDK2 [3] = biological target: CDK2 (UniProt P24941); test: Enzyme Assay; remark: listed apart in the source
CDK2 (human) [4] = biological target: CDK2 (human) (UniProt P24941); test: Enzyme Assay; remark: listed apart in the source
MAPK14 [5] = biological target: MAPK14 (UniProt Q16539); test: Cascade Assay for Inhibitors of the MAP Kinase Pathway
EGFR (human) [6] = biological target: EGFR (human) (UniProt P00533); settings: hn5
MAPK14 [7] = biological target: MAPK14 (UniProt Q16539); test: Inhibition of MAPK14 Kinase Activity
EGFR [8] = biological target: EGFR (UniProt P00533)
EGFR [9] = biological target: EGFR (UniProt P00533); remark: listed apart in the source
CDK2 [10] = biological target: CDK2 (UniProt P24941); test: Enzyme Assay; remark: listed apart in the source
EGFR (murine) [11] = biological target: EGFR (murine) (UniProt P00533); settings: nih3t3
EGFR [12] = biological target: EGFR (UniProt P00533); settings: balb/c 3t3
MAPK14 (Drosophila) = test: p38 Kinase Inhibition; settings: sf9
MAPK14 [13] = biological target: MAPK14 (UniProt Q16539); test: Inhibition of TNF-alpha Production
EGFR [14] = biological target: EGFR (UniProt P00533); remark: listed apart in the source
EGFR (murine) [15] = biological target: EGFR (murine) (UniProt P00533); settings: f/l-herc
MAPK14 (human) [16] = biological target: MAPK14 (human) (UniProt Q16539); test: TNFalpha Inhibition; settings: pbmc
EGFR [17] = biological target: EGFR (UniProt P00533); settings: concentration not given here
MAPK14 [18] = biological target: MAPK14 (UniProt Q16539)
EGFR (mouse) [19] = biological target: EGFR (mouse) (UniProt P00533); settings: Swiss 3T3
MAPK14 (human) [20] = biological target: MAPK14 (human) (UniProt Q16539); test: p38-alpha Kinase Inhibition; settings: concentration not given here
ROCK2 (rat) = ROCK2 (rat) (UniProt Q62868); test: ROCK-II Kinase Inhibition; settings: concentration not given here
EGFR [21] = biological target: EGFR (UniProt P00533); remark: listed apart in the source
ROCK2 [22] = biological target: ROCK2 (UniProt O75116); test: Inhibition of ROCK-II Kinase Activity; settings: concentration not given here
EGFR (human) [23] = biological target: EGFR (human) (UniProt P00533)
EGFR (mouse) [24] = biological target: EGFR (mouse) (UniProt P00533); settings: balb/mk
MAPK14 [25] = biological target: MAPK14 (UniProt Q16539); test: CSBP Inhibition
MAPK14 [26] = biological target: MAPK14 (UniProt Q16539); test: p38-alpha Kinase Inhibition; settings: concentration not given here
ROCK2 [27] = biological target: ROCK2 (UniProt O75116); test: ROCK2 Kinase Inhibition; settings: concentration not given here
EGFR (murine) [28] = biological target: EGFR (murine) (UniProt P00533); settings: nih3t3/c7
EGFR (human) [29] = biological target: EGFR (human) (UniProt P00533); settings: a431
EGFR [30] = biological target: EGFR (UniProt P00533); remark: listed apart in the source

EGFR (human), sequence (P00533 whole entry, looked up): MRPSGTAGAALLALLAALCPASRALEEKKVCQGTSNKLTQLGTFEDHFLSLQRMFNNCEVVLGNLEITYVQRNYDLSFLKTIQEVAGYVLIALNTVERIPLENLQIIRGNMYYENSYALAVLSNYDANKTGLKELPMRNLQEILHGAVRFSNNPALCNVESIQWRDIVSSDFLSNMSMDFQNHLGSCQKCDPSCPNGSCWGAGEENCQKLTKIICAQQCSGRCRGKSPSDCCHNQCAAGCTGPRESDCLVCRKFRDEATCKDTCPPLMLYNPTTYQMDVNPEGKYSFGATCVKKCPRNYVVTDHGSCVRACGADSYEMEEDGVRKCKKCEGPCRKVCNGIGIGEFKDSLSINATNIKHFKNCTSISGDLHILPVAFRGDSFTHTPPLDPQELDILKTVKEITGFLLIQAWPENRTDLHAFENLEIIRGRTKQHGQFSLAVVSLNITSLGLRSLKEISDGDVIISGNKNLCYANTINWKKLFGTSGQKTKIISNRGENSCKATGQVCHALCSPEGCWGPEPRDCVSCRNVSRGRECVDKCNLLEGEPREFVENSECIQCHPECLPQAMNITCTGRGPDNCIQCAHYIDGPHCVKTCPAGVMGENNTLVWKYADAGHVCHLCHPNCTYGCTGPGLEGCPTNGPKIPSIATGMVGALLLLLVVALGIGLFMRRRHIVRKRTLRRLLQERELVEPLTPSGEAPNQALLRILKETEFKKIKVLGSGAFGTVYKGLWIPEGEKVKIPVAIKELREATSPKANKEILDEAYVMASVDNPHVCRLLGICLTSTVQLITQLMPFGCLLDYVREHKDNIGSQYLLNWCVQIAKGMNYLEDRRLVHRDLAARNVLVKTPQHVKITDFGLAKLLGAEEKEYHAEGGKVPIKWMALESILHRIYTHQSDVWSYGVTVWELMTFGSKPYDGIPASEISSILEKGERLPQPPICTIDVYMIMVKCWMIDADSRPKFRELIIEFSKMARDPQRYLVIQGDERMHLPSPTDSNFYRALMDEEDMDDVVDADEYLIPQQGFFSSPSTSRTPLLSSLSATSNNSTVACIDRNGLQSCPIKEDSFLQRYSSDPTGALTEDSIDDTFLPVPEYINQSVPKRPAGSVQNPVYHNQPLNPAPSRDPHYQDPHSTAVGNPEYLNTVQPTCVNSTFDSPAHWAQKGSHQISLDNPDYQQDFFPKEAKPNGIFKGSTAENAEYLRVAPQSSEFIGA
EGFR, sequence (P00533 whole entry, looked up): as above
EGFR (murine), sequence (P00533 whole entry, looked up): as above
MAPK14, sequence (Q16539 whole entry, looked up): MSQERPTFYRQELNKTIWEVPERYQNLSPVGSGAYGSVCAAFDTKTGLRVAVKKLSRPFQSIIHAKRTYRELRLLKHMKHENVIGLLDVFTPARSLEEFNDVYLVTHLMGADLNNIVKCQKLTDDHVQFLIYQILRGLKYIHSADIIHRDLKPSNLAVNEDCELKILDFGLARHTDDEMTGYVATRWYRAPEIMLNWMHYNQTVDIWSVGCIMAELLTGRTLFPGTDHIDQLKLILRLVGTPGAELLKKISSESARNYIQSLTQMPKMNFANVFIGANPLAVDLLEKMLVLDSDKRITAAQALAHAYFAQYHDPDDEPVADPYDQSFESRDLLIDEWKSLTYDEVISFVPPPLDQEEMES
MAPK14 (human), sequence (Q16539 whole entry, looked up): as above

Q: What does the source list for `O=C1Nc2ccccc2/C1=C1/Nc2ccccc2C1=O`?
A: pIC50 (CDK2 [1]): 5.12; pIC50 (CDK2 (human) [2]): 5.12; pIC50 (CDK2 [3]): 5.66; pIC50 (CDK2 (human) [4]): 5.66

Q: `COc1ccc(CN(Cc2ccc(OC)cc2)S(=O)(=O)c2cc(C(=O)NOCC3CC3)c(Nc3ccc(I)cc3Cl)c(F)c2F)cc1` was tested. Which pIC50 (MAPK14 [5]) did it give?
A: The pIC50 was < 5.52.

Q: With `C#Cc1cccc(Nc2ncnc3ccc(OCCCCNCCS(C)(=O)=O)cc23)c1` as the molecule, how does the pIC50 (EGFR (human) [6]) read?
A: Its pIC50 is 7.35.

Q: `CCS(=O)(=O)c1ccc(OC)c(Nc2ncc(-c3cccc(-c4ccccn4)c3)o2)c1` was tested. Which pIC50 (MAPK14 [7]) did it give?
A: The pIC50 was < 5.00.

Q: What about the pIC50 (CDK2 [3]) of the same molecule?
A: Its pIC50 is 5.77.

Q: And the pIC50 (EGFR [8])?
A: The pIC50 was < 5.00.

Q: With `CNC(=O)[C@H](CCCCN)NC(=O)[C@H](CCCCN)NC(=O)[C@@H]1CCCN1C(=O)[C@H](CSCCOCCOCCn1cc(C2=C(c3c[nH]c4ccccc34)C(=O)NC2=O)c2ccccc21)NC(C)=O` (Ac-C(X1)PKK-NHMe) as the molecule, how does the inhibition (EGFR [9]) read?
A: The inhibition was 0.

Q: How did the pKi (CDK2 [3]) turn out when `Cc1c(-c2ccnc(Nc3cccc(CCNS(C)(=O)=O)c3)n2)sc(=O)n1C` was run?
A: The pKi was 7.41.

Q: What about the pKi (CDK2 [10]) of the same molecule?
A: Its pKi is 7.38.

Q: With `CC(=O)NCc1ccc(Nc2nccc(-c3sc(=O)n(C)c3C)n2)cc1` as the molecule, how does the pKi (CDK2 [3]) read?
A: Its pKi is 7.47.

Q: And the pKi (CDK2 [10])?
A: The pKi was 6.66.

Q: How did the pIC50 (EGFR (murine) [11]) turn out when `O=C1Nc2ccccc2/C1=C/c1ccncc1` was run?
A: Its pIC50 is < 4.00.

Q: `Clc1cccc(Nc2ncnc3c2C2CCCCC2N3)c1` (stereo unspecified) was tested. Which pIC50 (EGFR [12]) did it give?
A: The pIC50 was 6.52.

Q: How did the pIC50 (MAPK14 (Drosophila)) turn out when `Cc1ccccc1-c1nc(N(C(N)=O)c2c(Cl)cccc2Cl)ccc1CO` was run?
A: The pIC50 was 7.25.

Q: With `CN1CC2CCC1CC2Nc1cc(-c2ccccc2Cl)c2c(c1)N(c1c(Cl)cccc1Cl)C(=O)NC2` (stereo unspecified) as the molecule, how does the pIC50 (MAPK14 [7]) read?
A: The pIC50 was 9.40.

Q: And the pIC50 (MAPK14 [13])?
A: Its pIC50 is 7.70.

Q: How did the pIC50 (EGFR [14]) turn out when `Oc1cc2cc(-c3cccnc3)cnc2cc1O` was run?
A: The pIC50 was 5.90.

Q: How did the pIC50 (EGFR (murine) [15]) turn out when `O=C(N(c1ncc2ncnc(Nc3ccc(F)c(Cl)c3)c2n1)C1CCNCC1)C(F)(F)F` was run?
A: The pIC50 was < 4.70.

Q: With `O=C1/C(=C2\Nc3ccccc3C2=O)Nc2ccccc21` as the molecule, how does the pIC50 (CDK2 [1]) read?
A: The pIC50 was < 3.00.

Q: And the pIC50 (CDK2 (human) [2])?
A: The pIC50 was < 3.00.

Q: What about the pIC50 (CDK2 [3]) of the same molecule?
A: Its pIC50 is 4.15.

Q: And the pIC50 (CDK2 (human) [4])?
A: The pIC50 was 4.15.

Q: How did the pIC50 (MAPK14 (human) [16]) turn out when `Cc1ccc(NC(=O)c2ccnc(N3CCOCC3)c2)cc1-n1cnc2c(N(C)CCCN(C)C)cccc2c1=O` was run?
A: Its pIC50 is 5.15.

Q: With `O=C1NC(=O)c2c1c1c3ccccc3[nH]c1c1[nH]c3cc(O)c(O)cc3c21` as the molecule, how does the inhibition (EGFR [17]) read?
A: The inhibition was 50 to 80%.

Q: `COCC(=O)NCCn1cnc(-c2ccc(F)cc2)c1-c1ccnc(OCCC2CCCCC2)n1` was tested. Which pIC50 (MAPK14 [18]) did it give?
A: The pIC50 was > 4.30.

Q: With `Cc1cc2ncc(-c3cccs3)nc2cc1C` as the molecule, how does the pIC50 (EGFR (mouse) [19]) read?
A: Its pIC50 is < 4.52.

Q: `COc1cc(OC)c(/C=C2/C(=O)Nc3ccccc32)c(OC)c1` was tested. Which activity (MAPK14 (human) [20]) did it give?
A: Its activity is 86%.

Q: What about the activity (ROCK2 (rat)) of the same molecule?
A: Its activity is 96%.

Q: How did the pIC50 (EGFR [21]) turn out when `COc1ccc2c(Nc3cccc(Br)c3)ncnc2c1OC` was run?
A: The pIC50 was < 5.00.

Q: How did the pIC50 (EGFR [12]) turn out when `Brc1cccc(Nc2ncnc3c2C2CCCCC2N3)c1` (stereo unspecified) was run?
A: The pIC50 was 6.30.

Q: How did the pIC50 (EGFR [14]) turn out when `COc1ccc(/C=C/c2cnc3cc(OC)c(OC)cc3c2)cc1` was run?
A: Its pIC50 is < 4.70.

Q: `COc1ccc2ncnc(Nc3cccc(Br)c3)c2c1OC` was tested. Which pIC50 (EGFR [21]) did it give?
A: The pIC50 was 5.86.

Q: Which results are given for `O=C1Nc2ccc(Cl)cc2/C1=C1/Nc2ccccc2C1=O`?
A: pIC50 (CDK2 [1]): 6.26; pIC50 (CDK2 (human) [2]): 6.26; pIC50 (CDK2 [3]): 6.12; pIC50 (CDK2 (human) [4]): 6.12

Q: For `CN(C)c1nc2c(Br)c(Br)c(Br)c(Br)c2[nH]1`, which inhibition (ROCK2 [22]) is on record?
A: Its inhibition is 31%.

Q: And the inhibition (MAPK14 [7]; concentration not given here)?
A: The inhibition was 15%.

Q: For `COc1cc2ncc(C#N)c(Nc3ccc(Sc4nc(-c5ccccc5)cs4)c(Cl)c3)c2cc1C(C(N)=O)C(CN(C)C)N(C)C` (stereo unspecified), which IC50 (EGFR (human) [23]) is on record?
A: Its IC50 is 3.2 mg/L (≈ 4.76 µM).

Q: How did the pIC50 (EGFR (mouse) [24]) turn out when `Cc1c(-c2ccccc2)[nH]c2ncnc(Nc3cccc(Cl)c3)c12` was run?
A: Its pIC50 is < 4.30.

Q: With `CSc1ccc(-c2ncn(C3CCN(CCC(=O)O)CC3)c2-c2ccnc(SC)n2)cc1` as the molecule, how does the pIC50 (MAPK14 [25]) read?
A: Its pIC50 is > 4.30.

Q: With `CN(C)CCCn1cc(C2=C(c3c[nH]c4ccccc34)C(=O)NC2=O)c2ccccc21` as the molecule, how does the activity (CDK2 [3]; concentration not given here) read?
A: Its activity is 42%.

Q: And the activity (MAPK14 [26])?
A: The activity was 99%.

Q: And the inhibition (EGFR [9])?
A: Its inhibition is 0.

Q: What about the activity (ROCK2 [27]) of the same molecule?
A: Its activity is 89%.

Q: With `O=C1Nc2ccccc2C1=Cc1ccc(N2CCOCC2)cc1` as the molecule, how does the pIC50 (EGFR (murine) [28]) read?
A: The pIC50 was 4.70.

Q: `CCOC(=O)C(C#N)=Cc1cc(C(C)(C)C)cc(C(C)(C)C)c1` was tested. Which pIC50 (EGFR (human) [29]) did it give?
A: Its pIC50 is 4.70.

Q: How did the pIC50 (EGFR [30]) turn out when `CCC(C)[C@H](NC(=O)[C@H](CCC(=O)O)NC(=O)[C@H](CCC(=O)O)NC(=O)C(Cc1ccc(CCC(=O)C(C)=O)cc1)NC(C)=O)C(=O)N[C@@H](CCC(=O)O)C(=O)O` (stereo partly specified) (Ac-[X1]EE[Ile(3ξ)]E-OH) was run?
A: Its pIC50 is ≥ 3.59.
